Source: patent publication US7750014B2, “Imidazo[1,2-C]pyrimidinylacetic acid derivatives” (Actimis Pharmaceuticals, Inc., priority 2004, dated 2010)
Where two headings read alike, the source gives them in different places.

Columns and labels:
[1] = target: T1, human CRTH2 (Homo sapiens, UniProt Q9Y5Y4); experiment: Measurement of Ca2+ mobilization in the human CRTH2-transfected L1.2 cell line (Assay 1); type: cell-based; details: PGD2-induced Ca2+ mobilization, CRTH2-transfected L1.2 cells, compounds at purity of about 40 to 90%
T1 construct: expressed in transfected cells
T1 sequence (Q9Y5Y4 1-395): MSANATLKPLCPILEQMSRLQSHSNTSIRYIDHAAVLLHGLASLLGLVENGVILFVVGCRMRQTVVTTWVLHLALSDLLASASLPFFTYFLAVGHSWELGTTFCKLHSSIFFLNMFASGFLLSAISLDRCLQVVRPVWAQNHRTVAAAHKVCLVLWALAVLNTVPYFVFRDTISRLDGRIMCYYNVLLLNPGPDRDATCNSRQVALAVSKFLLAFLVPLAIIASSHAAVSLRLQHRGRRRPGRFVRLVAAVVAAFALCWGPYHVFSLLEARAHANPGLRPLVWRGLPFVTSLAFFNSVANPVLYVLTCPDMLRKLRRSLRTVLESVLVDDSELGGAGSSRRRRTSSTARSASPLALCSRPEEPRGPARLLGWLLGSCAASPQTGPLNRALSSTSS
Experimental: (§1) Human CRTH2 cDNA was amplified from human eosinophil cDNA with gene specific primers containing restriction sites for cloning into pEAK vector (Edge Bio Systems). The human CRTH2 cDNA was cloned into the mammalian expression vector pEAK. This expression plasmid (40 μg) was transfected into L1.2 cells, at a cell density of 1×10^7 cells/500 μl, by using electroporation apparatus (Gene Pulser II, BioRad) at 250V/1,000 μF. One day after the transfection, puromycin (1 μg/ml, Sigma) was added into the cell culture plates. Two weeks after the transfection, grown cells were picked up for further growth.
Ca^2+ loading buffer was prepared by mixing 5 μl of Fluo-3AM (2 mM in DMSO, final 1 μM, Molecular Probes) and 10 μl of pluronic F-127 (Molecular Probes) and diluting the resulting mixture in 10 ml of Ca^2+ assay buffer (20 mM HEPES pH 7.6, 0.1% BSA, 1 mM probenecid, Hanks' solution). The CRTH2 transfected cells which were prepared in Example 1 were washed with PBS, resuspended in Ca^2+ loading buffer at 1×10^7 cells/ml, and incubated for 60 min at room temperature. After incubation, cells were washed and resuspended in Ca^2+ assay buffer, then dispensed into transparent-bottom 96-well plates (#3631, Costar) at 2×10^5 cells/well. Cells were incubated with various concentrations of test compound for 5 minutes at room temperature. The emitted 480 nm fluorescence was measured on FDSS6000, a Ca^2+-measurement apparatus (Hamamatsu Photonics, Hamamatsu, Japan).
Assay results in Assay 1 are shown in Examples and tables of the Examples below. The data corresponds to the compounds as yielded by solid phase synthesis and thus to levels of purity of about 40 to 90%. For practical reasons, the compounds are grouped in four classes of activity as follows: IC50=A(< or =)10 nM<B(< or =)100 nM<C(< or =)500 nM<D

[2] = target: T1, human CRTH2; experiment: Human CRTH2 receptor binding assay (Assay 2); details: binding to puromycin-resistant CRTH2 L1.2 transfectants
Experimental: as §1
CRTH2 transfectants were washed once with PBS and resuspended in binding buffer (50 mM Tris-HCl, pH7.4, 40 mM MgCl2, 0.1% BSA, 0.1% NaN3). 100 μl of cell suspension (2×10^5 cells), [^3H]-labeled PGD2, and various concentrations of test compound were then mixed in a 96-well U-bottom polypropylene plate and incubated for 60 min at room temperature to allow binding to occur. After incubation, the cell suspension was transferred to a filtration plate (#MAFB, Millipore) and washed 3 times with binding buffer. Scintillant was added to the filtration plate, and radioactivity remaining on the filter was measured by TopCount (Packard), a scintillation counter. Non-specific binding was determined by incubating the cell suspension and [^3H]-labeled PGD2 in the presence of 1 μM of unlabeled PGD2.

[3] = read-out: In vitro activity grade

Row | IC50 ([1]; read-out: Activity class) [nM] | IC50 [1, 3] [nM] | further results | Structure (SMILES)
1 | < 10 |  |  | O=C(O)Cc1c(Cl)nc(Cc2ccc(NC(=O)c3ccc(Cl)c(Cl)c3)cc2)n2ccnc12 [Example 1-2, (7-chloro-5-{4-[(3,4-dichlorobenzoyl)amino]benzyl}imidazo[1,2-c]pyrimidin-8-yl)acetic acid]
2 |  | 100 to 500 |  | O=C(O)Cc1cnc(Cc2ccc(NC(=O)c3ccc(Cl)c(Cl)c3)cc2)n2ccnc12 [Example 2-2, (5-{4-[(3,4-Dichlorobenzoyl)amino]benzyl}imidazo[1,2-c]pyrimidin-8-yl)acetic acid]
3 | 10 to 100 |  |  | O=C(O)Cc1c(Cl)nc(Cc2ccc(NC(=O)/C=C/c3ccc(Cl)cc3)cc2)n2ccnc12 [Example 1-5, [7-chloro-5-(4-{[(2E)-3-(4-chlorophenyl)prop-2-enoyl]amino}benzyl)imidazo[1,2-c]pyrimidin-8-yl]acetic acid]
4 |  | 10 to 100 |  | O=C(O)Cc1c(Cl)nc(Cc2ccc(NC(=O)c3ccc(C(F)(F)F)cc3)cc2)n2ccnc12 [Example 1-1, [7-Chloro-5-(4-{[4-(trifluoromethyl)benzoyl]amino}benzyl)imidazo[1,2-c]pyrimidin-8-yl]acetic acid]
5 |  |  | Kd [2]: 6.3 nM | CCCCC[C@H](O)/C=C/[C@H]1C(=O)C[C@H](O)[C@@H]1C/C=C\CCCC(=O)O [[^3H]-labeled PGD2]
6 | 10 to 100 |  |  | O=C(O)Cc1c(Cl)nc(Cc2ccc(NC(=O)c3ccc4ccccc4c3)cc2)n2ccnc12 [Example 1-3, {7-chloro-5-[4-(2-naphthoylamino)benzyl]imidazo[1,2-c]pyrimidin-8-yl}acetic acid]
7 |  | 10 to 100 |  | O=C(O)Cc1cnc(Cc2ccc(NC(=O)c3ccc(C(F)(F)F)cc3)cc2)n2ccnc12 [Example 2-1, [5-(4-{[4-(trifluoromethyl)benzoyl]amino}benzyl)imidazo[1,2-c]pyrimidin-8-yl]acetic acid]
8 | < 10 |  |  | O=C(O)Cc1c(Cl)nc(Cc2ccc(NC(=O)/C=C/c3ccccc3)cc2)n2ccnc12 [Example 1-4]
